Three compounds from PubChem BioAssay AID1259407 (Chemical Carcinogenesis Research Information System (CCRIS), 2018) can be followed below.

Activity calls are given as the source filed them. The rule behind the calls is not given here.

The test system of this data set is CCRIS mutagenicity, Ames/micronucleus/aberration tests. The experiment in a line: CCRIS mutagenicity studies. An excerpt:
The CCRIS database contains chemical records with carcinogenicity, mutagenicity, tumor promotion, and tumor inhibition test results. It was developed by the National Cancer Institute (NCI). Data are derived from studies cited in primary journals, current awareness tools, NCI reports, and other sources. Test results have been reviewed by experts in carcinogenesis and mutagenesis.
CCRIS provides historical information from the years 1985 - 2011. It is no longer updated.
This is an archive assay for CCRIS mutagenicity studies.

[1] abbreviates: Test System: AMES SALMONELLA TYPHIMURIUM, Strain/Indicator: TA98, Metabolic Activation: NONE, Method: STANDARD PLATE.
[2] abbreviates: Test System: AMES SALMONELLA TYPHIMURIUM, Strain/Indicator: TA98, Metabolic Activation: RAT, LIVER, S-9, AROCLOR 1254, Method: STANDARD PLATE.
The mark [3] stands for this setting: Test System: AMES SALMONELLA TYPHIMURIUM, Strain/Indicator: TA100, Metabolic Activation: NONE, Method: STANDARD PLATE.
[4] abbreviates: Test System: AMES SALMONELLA TYPHIMURIUM, Strain/Indicator: TA100, Metabolic Activation: RAT, LIVER, S-9, AROCLOR 1254, Method: STANDARD PLATE.
Setting [5] is: Test System: AMES SALMONELLA TYPHIMURIUM, Strain/Indicator: TA1535, Metabolic Activation: NONE, Method: STANDARD PLATE.
Where [6] appears, read: Test System: AMES SALMONELLA TYPHIMURIUM, Strain/Indicator: TA1537, Metabolic Activation: NONE, Method: STANDARD PLATE.

`CCOC(=O)CC(SP(=S)(OC)OC)C(=O)OCC` (stereo not drawn): the mutagenic call is, setting by setting: (End Point: IN VITRO CHROMOSOMAL ABERRATIONS, Test System: CHINESE HAMSTER OVARY CELLS, Metabolic Activation: NONE) “inactive; negative”; (End Point: IN VITRO CHROMOSOMAL ABERRATIONS, Test System: CHINESE HAMSTER OVARY CELLS, Metabolic Activation: RAT, LIVER, S-9, AROCLOR 1254) “active; positive; precipitation occurred at all doses”; (End Point: IN VITRO MICRONUCLEUS, Test System: HUMAN PERIPHERAL LYMPHOCYTES, Metabolic Activation: NONE, Method: DUAL COLOR PROBE) “active; positive”; (End Point: IN VIVO CHROMOSOMAL ABERRATIONS, Test System: BONE MARROW, Species: MOUSE, Strain/Sex: SWISS/MALE, Route: IP INJECTION) “active; positive (structural changes: chromosome gaps, abnormal metaphases)”; (End Point: IN VIVO CHROMOSOMAL ABERRATIONS, Test System: BONE MARROW, Species: MOUSE, Strain/Sex: SWISS/MALE, Route: ORAL (DIET)) “active; positive (structural changes: gaps, breaks, deletions, tetraploidy)”; (End Point: IN VIVO MICRONUCLEUS, Test System: BONE MARROW POLYCHROMATIC ERYTHROCYTES, Species: MOUSE, Strain/Sex: SWISS/MALE, FEMALE, Route: IP INJECTION) “active; positive; higher dose effective”. Further, the mutagenic call (End Point: IN VIVO MICRONUCLEUS, Test System: BONE MARROW POLYCHROMATIC ERYTHROCYTES, Species: MOUSE, Strain/Sex: SWISS/MALE, FEMALE, Route: ORAL) was “active; positive”; the mutagenic call (End Point: In vivo micronucleus, Test System: Peripheral blood polychromatic and normochromatic erythrocytes, Species: Rat, Strain/Sex: Wistar/Male, Route: Intraperitoneal) is “active; positive. positive response at highest dose”; the mutagenic call (End Point: In vivo micronucleus, Test System: Peripheral blood polychromatic erythrocytes, Species: Rat, Strain/Sex: Wistar/Male, Route: Intraperitoneal) is “inactive; negative. increases in ratio of polychromatic erythrocytes to normochromatic lym”; the mutagenic call (Test System: AMES SALMONELLA TYPHIMURIUM, Strain/Indicator: TA97A, Metabolic Activation: NONE, Method: STANDARD PLATE) was “inactive; negative”; the mutagenic call (Test System: AMES SALMONELLA TYPHIMURIUM, Strain/Indicator: TA97A, Metabolic Activation: RAT, CECAL CELL FREE EXTRACT, Method: STANDARD PLATE) is “inactive; negative”; the mutagenic call (Test System: AMES SALMONELLA TYPHIMURIUM, Strain/Indicator: TA97A, Metabolic Activation: RAT, LIVER, S-9, AROCLOR 1254, Method: STANDARD PLATE) is “inactive; negative”. Further, the mutagenic call reads like this: under setting [1], “inactive; negative”; (Test System: AMES SALMONELLA TYPHIMURIUM, Strain/Indicator: TA98, Metabolic Activation: RAT, CECAL CELL FREE EXTRACT, Method: STANDARD PLATE) “inactive; negative”; under setting [2], “inactive; negative”; (Test System: AMES SALMONELLA TYPHIMURIUM, Strain/Indicator: TA98, Metabolic Activation: S-9, NADPH GENERATING SYSTEM, Method: STANDARD PLATE) “inactive; negative”; under setting [3], “inactive; negative”; (Test System: AMES SALMONELLA TYPHIMURIUM, Strain/Indicator: TA100, Metabolic Activation: RAT, CECAL CELL FREE EXTRACT, Method: STANDARD PLATE) “inactive; negative”. For the same compound, the mutagenic call under setting [4] was “inactive; negative”; the mutagenic call (Test System: AMES SALMONELLA TYPHIMURIUM, Strain/Indicator: TA102, Metabolic Activation: NONE, Method: STANDARD PLATE) was “inactive; negative”; the mutagenic call (Test System: AMES SALMONELLA TYPHIMURIUM, Strain/Indicator: TA102, Metabolic Activation: S-9, NADPH GENERATING SYSTEM, Method: STANDARD PLATE) is “inactive; negative”; the mutagenic call under setting [5] is “inactive; negative”; the mutagenic call (Test System: AMES SALMONELLA TYPHIMURIUM, Strain/Indicator: TA1535, Metabolic Activation: S-9, NADPH GENERATING SYSTEM, Method: STANDARD PLATE) was “inactive; negative”; the mutagenic call under setting [6] is “inactive; negative”. In addition, where the note is “Test System: AMES SALMONELLA TYPHIMURIUM, Strain/Indicator: TA1537, Metabolic Activation: S-9, NADPH GENERATING SYSTEM, Method: STANDARD PLATE”, the mutagenic call is “inactive; negative”.
In the case of `Nc1n[nH]c(=S)s1`, the mutagenic call was “inactive; negative” (Test System: AMES SALMONELLA TYPHIMURIUM, Strain/Indicator: TA98, Metabolic Activation: HAMSTER, LIVER, S-9, AROCLOR 1254, Method: STANDARD PLATE); “inactive; negative” under setting [1]; “inactive; negative” under setting [2]; “inactive; negative” (Test System: AMES SALMONELLA TYPHIMURIUM, Strain/Indicator: TA100, Metabolic Activation: HAMSTER, LIVER, S-9, AROCLOR 1254, Method: STANDARD PLATE); “inactive; negative” under setting [3]; “inactive; negative” under setting [4]. In addition, the mutagenic call is “inactive; negative” (Test System: AMES SALMONELLA TYPHIMURIUM, Strain/Indicator: TA1535, Metabolic Activation: HAMSTER, LIVER, S-9, AROCLOR 1254, Method: STANDARD PLATE); “inactive; negative” under setting [5]; “inactive; negative” (Test System: AMES SALMONELLA TYPHIMURIUM, Strain/Indicator: TA1535, Metabolic Activation: RAT, LIVER, S-9, AROCLOR 1254, Method: STANDARD PLATE); “inactive; negative” (Test System: AMES SALMONELLA TYPHIMURIUM, Strain/Indicator: TA1537, Metabolic Activation: HAMSTER, LIVER, S-9, AROCLOR 1254, Method: STANDARD PLATE); “inactive; negative” under setting [6]; “inactive; negative” (Test System: AMES SALMONELLA TYPHIMURIUM, Strain/Indicator: TA1537, Metabolic Activation: RAT, LIVER, S-9, AROCLOR 1254, Method: STANDARD PLATE). In addition, the mutagenic call (Test System: AMES SALMONELLA TYPHIMURIUM, Strain/Indicator: TA1538, Metabolic Activation: HAMSTER, LIVER, S-9, AROCLOR 1254, Method: STANDARD PLATE) was “inactive; negative”; the mutagenic call (Test System: AMES SALMONELLA TYPHIMURIUM, Strain/Indicator: TA1538, Metabolic Activation: NONE, Method: STANDARD PLATE) is “inactive; negative”; the mutagenic call (Test System: AMES SALMONELLA TYPHIMURIUM, Strain/Indicator: TA1538, Metabolic Activation: RAT, LIVER, S-9, AROCLOR 1254, Method: STANDARD PLATE) is “inactive; negative”; the mutagenic call (Test System: MOUSE LYMPHOMA, Strain/Indicator: L5178Y (TK+/TK-), Metabolic Activation: NONE, Method: SUSPENSION/PLATE) is “active; positive. reevaluation of results: positive”; the mutagenic call (Test System: Mouse lymphoma, Strain/Indicator: L5178Y (tk+/tk-), Metabolic Activation: Rat, Liver, S-9, Aroclor 1254, Method: Suspension/plate) was “inactive; negative”.
Take `O=[N+]([O-])c1ccc2cccc3c2c1C=C3`: under setting [1], the mutagenic call is “active; positive”.
